Experimental data published in US6524630B2, “Use of cocoa procyanidins combined with acelylsalicyclic acid as an anti-platelet therapy” (Mars, Incorporated, priority 2000, dated 2003).
Marks after values point to notes of the source that are not given here.

Experiments:
Format in all cases: in vivo, human
[1] = tested on: prostacyclin (PGI2) metabolite 6-keto prostaglandin F1-alpha; experiment: Enzyme immunoassay of prostacyclin metabolite in blood after treatment
Description: Blood was drawn from the subjects prior to consumption of any food. After the initial blood was drawn, the subjects were divided into four groups. One group consumed 81 mg of aspirin (acetylsalicylic acid) (Bayer pediatric aspirin). A second group consumed a high cocoa polyphenol beverage consisting of 18.75 g of procyanidin enriched cocoa powder derived from Sulawesi beans (containing 51.1 mg/g of total procyanidins, 11.2% fat, 0.092% caffeine, 1.618% theobromine) and 12.5 g of sucrose mixed with 300 ml of distilled water. A third group consumed the high cocoa procyanidin beverage and 81 mg of baby aspirin. […] The blood samples were also analyzed for changes in leukotriene, prostacyclin and thromboxane levels resulting from the four treatment regimes. […] The prostacyclin (PGI2) metabolite 6-keto prostaglandin F1-alpha was measured with Cayman enzyme immunoassay #515211, the thromboxane (TXA2) metabolite TXB2 was measured with Cayman enzyme immunoassay 519031, and leukotrienes C4, D4 and E4 were quantified using the immunoassay EA-39 from Oxford Biomedical Research. P values were calculated using the paired sample T-test. […]

[2] = tested on: thromboxane (TXA2) metabolite TXB2; experiment: Enzyme immunoassay of thromboxane metabolite in blood after treatment
Description: Blood was drawn from the subjects prior to consumption of any food. After the initial blood was drawn, the subjects were divided into four groups. One group consumed 81 mg of aspirin (acetylsalicylic acid) (Bayer pediatric aspirin). A second group consumed a high cocoa polyphenol beverage consisting of 18.75 g of procyanidin enriched cocoa powder derived from Sulawesi beans (containing 51.1 mg/g of total procyanidins, 11.2% fat, 0.092% caffeine, 1.618% theobromine) and 12.5 g of sucrose mixed with 300 ml of distilled water. A third group consumed the high cocoa procyanidin beverage and 81 mg of baby aspirin. The final group consumed 81 mg of baby aspirin and a procyanidin deficient cocoa beverage consisting of 18.75 g of cocoa powder (containing 0.45 mg/g total procyanidins, 9.87% fat, 2.063% theobromine, 0.234% caffeine) and 12.5 g of sucrose mixed with 300 ml of distilled water. During the test period the subjects were permitted to consume water, caffeine-free diet soda, bagels, low fat cream cheese, and bananas. Blood was drawn from each of the subjects two hours and six hours post consumption of the treatment. Venous blood was aspirated into evacuated tubes containing 0.5 ml of 3.2% buffered sodium citrate solution.
The blood samples were also analyzed for changes in leukotriene, prostacyclin and thromboxane levels resulting from the four treatment regimes. Immunoassay procedures were conducted as described by Westcott et al, “Analysis Of 6-Keto PGF1 Alpha, 5-HETE, And LTC4 In Rat Lung: Comparison Of GM/MS, RIA and EIA”, Prostaglandins 32:857-873, 1986; Yakota et al, “Enzyme Immunoassay Of Prostanoids In Blood And Urine”, Adv. Prostgl.Thrombox. Leukot. Res. 15:33-34, 1985; and Schramm et al, “Differential Effects of Small and Large Molecular Weight Phytochemicals on Endothelial Cell Eicosanoid Secretion” J Agric Food Chem 46:1900-1905, 1998. The prostacyclin (PGI2) metabolite 6-keto prostaglandin F1-alpha was measured with Cayman enzyme immunoassay #515211, the thromboxane (TXA2) metabolite TXB2 was measured with Cayman enzyme immunoassay 519031, and leukotrienes C4, D4 and E4 were quantified using the immunoassay EA-39 from Oxford Biomedical Research. P values were calculated using the paired sample T-test. Values of p<0.05 were considered to be statistically significant.

[3] = tested on: leukotrienes C4, D4 and E4; experiment: Immunoassay of leukotrienes in blood after treatment
Description: Blood was drawn from the subjects prior to consumption of any food. After the initial blood was drawn, the subjects were divided into four groups. One group consumed 81 mg of aspirin (acetylsalicylic acid) (Bayer pediatric aspirin). A second group consumed a high cocoa polyphenol beverage consisting of 18.75 g of procyanidin enriched cocoa powder derived from Sulawesi beans (containing 51.1 mg/g of total procyanidins, 11.2% fat, 0.092% caffeine, 1.618% theobromine) and 12.5 g of sucrose mixed with 300 ml of distilled water. A third group consumed the high cocoa procyanidin beverage and 81 mg of baby aspirin. The final group consumed 81 mg of baby aspirin and a procyanidin deficient cocoa beverage consisting of 18.75 g of cocoa powder (containing 0.45 mg/g total procyanidins, 9.87% fat, 2.063% theobromine, 0.234% caffeine) and 12.5 g of sucrose mixed with 300 ml of distilled water. During the test period the subjects were permitted to consume water, caffeine-free diet soda, bagels, low fat cream cheese, and bananas. Blood was drawn from each of the subjects two hours and six hours post consumption of the treatment. Venous blood was aspirated into evacuated tubes containing 0.5 ml of 3.2% buffered sodium citrate solution. The blood samples were also analyzed for changes in leukotriene, prostacyclin and thromboxane levels resulting from the four treatment regimes. Immunoassay procedures were conducted as described by Westcott et al, “Analysis Of 6-Keto PGF1 Alpha, 5-HETE, And LTC4 In Rat Lung: Comparison Of GM/MS, RIA and EIA”, Prostaglandins 32:857-873, 1986; Yakota et al, “Enzyme Immunoassay Of Prostanoids In Blood And Urine”, Adv. Prostgl.Thrombox. Leukot. Res. 15:33-34, 1985; and Schramm et al, “Differential Effects of Small and Large Molecular Weight Phytochemicals on Endothelial Cell Eicosanoid Secretion” J Agric Food Chem 46:1900-1905, 1998. The prostacyclin (PGI2) metabolite 6-keto prostaglandin F1-alpha was measured with Cayman enzyme immunoassay #515211, the thromboxane (TXA2) metabolite TXB2 was measured with Cayman enzyme immunoassay 519031, and leukotrienes C4, D4 and E4 were quantified using the immunoassay EA-39 from Oxford Biomedical Research. P values were calculated using the paired sample T-test. Values of p<0.05 were considered to be statistically significant.

[4] = tested on: activated conformation of the GPIIb/IIIa platelet receptor; experiment: Ex vivo flow cytometry (PAC1) of activated GPIIb/IIIa on platelets after treatment; conditions: at 6 hours compared to baseline
Description: The subjects used in the previous study also participated in the surface protein expression study. The methodology with respect to treatment regimes and collection of blood was identical to that which was outlined in the previous example. Within 10 minutes of draw, whole blood was incubated in polystyrene tubes for 5 minutes at room temperature with 10 μm HEPES buffer (pH 7.4, unstimulated control), 20 or 100 μm ADP or 20 μtm epinephrine (BioData, Horsham, Pa.) in the presence or absence of the peptide […] (Sigma, St. Louis, Mo.). After 5 minutes, samples were suspended in 1 ml HEPES buffer and 100 μm of sample were transferred to tubes containing saturating concentrations (20 μm ) each of the following fluorescent-labeled monoclonal antibodies: PAC1-fluorescein isothiocyanate (FITC), anti-CD62P-phycoerythrin (PE) and anti-CD42a-PerCP. PAC1 recognizes the activated conformation of the fibrinogen-binding receptor GPIIb-IIIa and anti-CD62P recognizes P-selectin, present on the surface of activated platelets. […] All samples were analyzed within 48 hours on a FACScan flow cytometer using […] software. […] Twenty thousand events were collected in list mode with all light-scatter and fluorescence parameters in logarithmic code. […] The platelet-dependent hemostasis data were also analyzed for statistical differences among treatment groups for each time point, baseline, 2 and 6 hour.

P-selectin (CD62P) = experiment: Ex vivo flow cytometry of platelet surface expression of P-selectin after treatment
Description: The subjects used in the previous study also participated in the surface protein expression study. The methodology with respect to treatment regimes and collection of blood was identical to that which was outlined in the previous example. Within 10 minutes of draw, whole blood was incubated in polystyrene tubes for 5 minutes at room temperature with 10 μm HEPES buffer (pH 7.4, unstimulated control), 20 or 100 μm ADP or 20 μtm epinephrine (BioData, Horsham, Pa.) in the presence or absence of the peptide […] (Sigma, St. Louis, Mo.). After 5 minutes, samples were suspended in 1 ml HEPES buffer and 100 μm of sample were transferred to tubes containing saturating concentrations (20 μm ) each of the following fluorescent-labeled monoclonal antibodies: PAC1-fluorescein isothiocyanate (FITC), anti-CD62P-phycoerythrin (PE) and anti-CD42a-PerCP. PAC1 recognizes the activated conformation of the fibrinogen-binding receptor GPIIb-IIIa and anti-CD62P recognizes P-selectin, present on the surface of activated platelets. Anti-CD42a recognizes GP1b-1X, which is on the surface of both activated and resting platelets. Mouse IgG, FITC and mouse IgG, PE were used as isotype controls. The […]-peptide was used to block binding of the PAC1 antibody to platelets and thus set the negative control marker on the flow cytometer. Antibodies and isotype controls were purchased from Becton Dickinson Immunocytometry Systems, Inc., San Jose, Calif. Whole blood samples in the presence and absence of the agonists ADP and epinephrine were incubated with monoclonal antibodies or isotype control for 20 minutes in the dark at room temperature. Samples were then fixed in filtered 1% paraformaldehyde (pH 7.2) and stored in the dark at 2-8° C. All samples were analyzed within 48 hours on a FACScan flow cytometer using […] software. The flow cytometer performance was verified using 1, 2 and 10 μm calibration beads (Becton Dickinson Immunocytometry Systems, Inc., San Jose, Calif. and Flow Cytometry Systems, Research Triangle Park, N.C.). Twenty thousand events were collected in list mode with all light-scatter and fluorescence parameters in logarithmic code. Platelets were gated on the basis of […] CD42a expression. Activated platelets were defined as the percentage of CD42a positive events coexpressing the activated conformation of GPIIb-IIa or P-selectin. Platelet microparticles were defined as the percentage of CD42a positive events less than 2 μm in size. To perform the statistical analysis of the results, Friedman's repeated measures ANOVA on ranks (RM ANOVA on ranks) was used to compare the baseline, 2 and 6 hour results in each treatment group. Tukey's all pairwise comparison was used for post hoc multiple comparisons. […] The platelet-dependent hemostasis data were also analyzed for statistical differences among treatment groups for each time point, baseline, 2 and 6 hour.

SMILES: CC(=O)Oc1ccccc1C(=O)O [Aspirin, acetylsalicylic acid]
- Prostacyclin ([1]; 2 hrs post consumption): 103
- Prostacyclin ([1]; 6 hrs post consumption): 104
- TXB2/PG12 ratio ([2]; 2 hrs post consumption): 89
- Thromboxane ([2]; 2 hrs post consumption): 91
- TXB2/PG12 ratio ([2]; 6 hrs post consumption): 86
- Thromboxane ([2]; 6 hrs post consumption): 89
- LT/PG12 ratio ([3]; 2 hrs post consumption): 99
- Leukotrienes ([3]; 2 hrs post consumption): 101
- LT/PG12 ratio ([3]; 6 hrs post consumption): 100
- Leukotrienes ([3]; 6 hrs post consumption): 100
- epinephrine-induced GPIIb/IIIa expression [4]: suppressed
- % CD62 + Platelets, Median (P-selectin (CD62P); 20 μM ADP, 0 Hour (before consumption)): 64.5%
- % CD62 + Platelets, Median (P-selectin (CD62P); 20 μM ADP, 2 Hour): 60.3%
- % CD62 + Platelets, Median (P-selectin (CD62P); 20 μM ADP, 6 Hour): 60.8%
- % CD62 + Platelets, Median (P-selectin (CD62P); 20 μM Epinephrine, 0 Hour (before consumption)): 7.9%
- % CD62 + Platelets, Median (P-selectin (CD62P); 20 μM Epinephrine, 2 Hour): 6.2%
- % CD62 + Platelets, Median (P-selectin (CD62P); 20 μM Epinephrine, 6 Hour): 4.7* %
- % CD62 + Platelets, Median (P-selectin (CD62P); Unstimulated, 0 Hour (before consumption)): 1.4%
- % CD62 + Platelets, Median (P-selectin (CD62P); Unstimulated, 2 Hour): 1.5%
- % CD62 + Platelets, Median (P-selectin (CD62P); Unstimulated, 6 Hour): 1.3%
- epinephrine-induced P-selectin expression (P-selectin (CD62P); at 6 hours compared to baseline, in words): suppressed
